Calls of active or inactive are those of the source. The rule behind the calls is not given here.
Legend:
[1] = Cytotoxicity against human fibroblasts assessed as cell viability after 72 hrs by MTT assay; type: cell-based; details: Fibroblast
RPMI-8226 = assay: Photoprotection against UV light-induced DNA damage in human RPMI8226 cells at 10 mM treated in cream formulation measured for 3 hrs by agarose gel electrophoresis; type: functional, cell-based
[2] = Photoprotection against UV light-induced Escherichia coli pEGFP-C1 DNA damage at 10 mM treated in cream formulation measured for 2 hrs by agarose gel electrophoresis; type: functional
[3] = Cytotoxicity against mouse Cloudman S91 cells assessed as cell viability after 72 hrs by MTT assay; type: cell-based; details: S91, 72 h
[4] = Photoprotection against UV light-induced Escherichia coli pEGFP-C1 DNA damage at 10 mM treated in 1N NaOH solution measured for 2 hrs by agarose gel electrophoresis; type: functional
MCF-10A = assay: Cytotoxicity against human MCF10A cells assessed as cell viability after 72 hrs by MTT assay; type: cell-based
Vero = assay: Cytotoxicity against african green monkey Vero cells assessed as cell viability after 72 hrs by MTT assay; type: cell-based; details: Chlorocebus sabaeus

**Q.** Which EC50 [1] does the source give for Cc1cn(CCCn2cc(C)c(=O)[nH]c2=O)c(=O)[nH]c1=O here?
**A.** > 100 µM

**Q.** What about the Activity (RPMI-8226) of the same molecule?
**A.** Active

**Q.** What about the Activity [2] of the same molecule?
**A.** Active

**Q.** What about the EC50 [3] of the same molecule?
**A.** > 100 µM

**Q.** And the Activity [4]?
**A.** Active

**Q.** What about the EC50 (MCF-10A) of the same molecule?
**A.** > 100 µM

**Q.** What about the EC50 (Vero) of the same molecule?
**A.** > 100 µM
